Test results: ChEMBL document CHEMBL4011641, “Prodrugs of Pyrazolo[3,4-d]pyrimidines: From Library Synthesis to Evaluation as Potential Anticancer Agents in an Orthotopic Glioblastoma Model” (J Med Chem, 2017); call rule not given here
Values after ≈ are worked out from the molar mass of the structure shown.

Experiments:
[1] = Metabolic stability in human liver microsomes assessed as parent compound remaining at 50 uM after 1 hr in presence of NADPH regenerating system by UV/LC-MS analysis; type: ADME, microsome; conditions: read-out: Stability
[2] = pampa, 5 h, 500 µM
Description: (§1) Apparent permeability at 500 uM after 5 hrs by Gastro-intestinal-based PAMPA

physchem [3] = conditions: PAMPA
Description: Apparent permeability at 500 uM after 5 hrs by Blood-Brain Barrier-based PAMPA

[4] = Metabolic stability in mouse liver microsomes assessed as unmetabolized compound remaining at 50 uM after 1 hr in presence of NADPH regenerating system by UV/LC-MS analysis; type: ADME, microsome; conditions: read-out: Stability
cells [5] = conditions: Homo sapiens, U-87 MG, 24 h
Description: Cytotoxicity against human U87 cells assessed as reduction in cell viability after 24 hrs by trypan blue assay

cells [6] = conditions: Homo sapiens, U-87 MG, 48 h
Description: Cytotoxicity against human U87 cells assessed as reduction in cell viability after 48 hrs by trypan blue assay

cells [7] = conditions: Homo sapiens, U-87 MG, 72 h
Description: Cytotoxicity against human U87 cells assessed as reduction in cell viability after 72 hrs by trypan blue assay

physchem [8] = conditions: PAMPA; remark: listed apart in the source
Description: as §1

physchem [9] = conditions: aqueous
Description: Aqueous solubility of compound at 1 mg after 24 hrs by UV/LC-MS analysis

[10] = Half life in PBS buffer at 100 uM at pH 7.4 by UV/LC-MS analysis; type: physicochemical
[11] = Half life in methanol at 100 uM by UV/LC-MS analysis; type: physicochemical
[12] = Half life in human plasma by UV/LC-MS analysis; type: ADME, cell-free
[13] = Drug uptake in cytoplasm of human U87 cells at 20 uM after 2 hrs by UV/LC-MS analysis; type: ADME
[14] = Drug uptake in cytoplasm of human U87 cells at 20 uM after 5 hrs by UV/LC-MS analysis; type: ADME
[15] = Half life in mouse plasma by UV/LC-MS analysis; type: ADME, cell-free
[16] = Prodrug activation in human U87 cells assessed as N-(3-bromophenyl)-6-(methylthio)-1-(2-phenylpropyl)-1H-pyrazolo[3,4-d]pyrimidin-4-amine formation at 20 uM up to 25 hrs by UV/LC-MS analysis; type: cell-based; conditions: u-87mg atcc
[17] = target: Tyrosine-protein kinase ABL1 (Homo sapiens, UniProt P00519)
Description: Inhibition of human wild type full length N-terminal GST/6His-tagged ABL (P118 to S535 residues) expressed in Sf9 cells using abltide as substrate after 5 mins in presence of [gamma-32P]ATP by scintillation counting

[18] = target: Proto-oncogene tyrosine-protein kinase Src (Homo sapiens, UniProt P12931); experiment: biochemical
Description: Inhibition of human wild type full length N-terminal GST/6His-tagged SRC (M1 to L536 residues) expressed in baculovirus infected Sf9 cells using src peptide as substrate after 5 mins in presence of [gamma-32P]ATP by scintillation counting method

[19] = Drug uptake in cytoplasm of human U87 cells at 20 uM after 7 hrs by UV/LC-MS analysis; type: ADME

Chain of Tyrosine-protein kinase ABL1 (P00519 whole entry): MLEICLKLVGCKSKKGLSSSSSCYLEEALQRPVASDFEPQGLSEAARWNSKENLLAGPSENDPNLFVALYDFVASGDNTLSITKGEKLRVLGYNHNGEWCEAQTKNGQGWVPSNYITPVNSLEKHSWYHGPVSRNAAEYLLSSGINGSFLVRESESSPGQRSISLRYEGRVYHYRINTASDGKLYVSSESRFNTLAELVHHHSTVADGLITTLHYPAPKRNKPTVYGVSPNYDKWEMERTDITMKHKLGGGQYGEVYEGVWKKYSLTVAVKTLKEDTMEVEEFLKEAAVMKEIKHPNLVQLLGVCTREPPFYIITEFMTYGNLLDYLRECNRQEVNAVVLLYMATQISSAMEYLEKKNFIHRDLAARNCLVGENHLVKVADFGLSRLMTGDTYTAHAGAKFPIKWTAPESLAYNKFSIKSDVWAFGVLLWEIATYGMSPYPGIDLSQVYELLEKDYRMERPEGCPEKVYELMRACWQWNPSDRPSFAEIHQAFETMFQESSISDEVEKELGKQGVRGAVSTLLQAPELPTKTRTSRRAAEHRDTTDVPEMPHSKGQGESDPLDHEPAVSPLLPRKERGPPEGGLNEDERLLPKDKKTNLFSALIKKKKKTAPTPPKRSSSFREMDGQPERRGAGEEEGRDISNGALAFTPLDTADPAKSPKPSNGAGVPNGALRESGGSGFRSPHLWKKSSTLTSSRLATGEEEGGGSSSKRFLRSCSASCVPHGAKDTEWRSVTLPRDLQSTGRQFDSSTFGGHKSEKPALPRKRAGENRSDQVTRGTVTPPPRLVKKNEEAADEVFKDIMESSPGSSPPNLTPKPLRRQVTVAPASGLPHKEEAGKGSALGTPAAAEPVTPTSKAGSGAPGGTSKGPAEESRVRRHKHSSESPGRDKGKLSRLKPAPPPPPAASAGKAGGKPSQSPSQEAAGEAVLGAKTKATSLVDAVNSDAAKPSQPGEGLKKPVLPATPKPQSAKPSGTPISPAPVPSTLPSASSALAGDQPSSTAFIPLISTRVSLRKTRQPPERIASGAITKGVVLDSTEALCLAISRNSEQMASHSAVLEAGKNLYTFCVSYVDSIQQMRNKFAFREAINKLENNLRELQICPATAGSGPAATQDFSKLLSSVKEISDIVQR
Chain of Proto-oncogene tyrosine-protein kinase Src (P12931 2-536 limits assumed): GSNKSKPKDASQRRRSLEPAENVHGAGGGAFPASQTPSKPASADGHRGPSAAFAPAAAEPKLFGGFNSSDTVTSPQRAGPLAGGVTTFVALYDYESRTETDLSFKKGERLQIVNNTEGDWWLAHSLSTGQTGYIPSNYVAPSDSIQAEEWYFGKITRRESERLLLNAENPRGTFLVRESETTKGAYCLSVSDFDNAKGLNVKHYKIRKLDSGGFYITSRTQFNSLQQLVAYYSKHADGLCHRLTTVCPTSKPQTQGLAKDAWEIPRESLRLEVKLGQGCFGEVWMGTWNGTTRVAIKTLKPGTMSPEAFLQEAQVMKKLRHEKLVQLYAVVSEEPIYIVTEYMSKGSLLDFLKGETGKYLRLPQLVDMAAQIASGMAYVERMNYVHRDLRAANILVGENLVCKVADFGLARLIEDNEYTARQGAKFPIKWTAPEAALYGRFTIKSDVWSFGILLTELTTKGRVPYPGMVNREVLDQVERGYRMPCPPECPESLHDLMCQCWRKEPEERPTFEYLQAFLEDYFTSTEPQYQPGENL

| Structure (SMILES) | remaining at 1 h, 50 µM [1] [%] | Papp [2] [×10⁻⁶ cm/s] | Papp at 5 h, 500 µM (physchem [3]) [×10⁻⁶ cm/s] | remaining at 1 h, 50 µM [4] [%] | IC50 (cells [5]) [µM] | IC50 (cells [6]) [µM] | IC50 (cells [7]) [µM] | Papp at 5 h, 500 µM (physchem [8]) [×10⁻⁶ cm/s] | solubility at 24 h (physchem [9]) [µg/mL] | half-life at 100 µM [10] [h] | half-life at 100 µM [11] [h] | half-life [12] [h] | Drug uptake [13] | Drug uptake [14] | half-life [15] [h] | Drug metabolism [16] | Ki [17] [µM] | Ki [18] [µM] | Drug uptake [19] |
| --- | --- | --- | --- | --- | --- | --- | --- | --- | --- | --- | --- | --- | --- | --- | --- | --- | --- | --- | --- |
| CSc1nc(Nc2cccc(Cl)c2)c2cnn(CCc3ccccc3)c2n1 | 99 | 0.25 | 1.48 | – | – | – | – | – | – | – | – | – | – | – | – | – | – | – | – |
| ClC(Cn1ncc2c(Nc3ccccc3)ncnc21)c1ccc(Br)cc1 (stereo unspecified) | 96.4 | – | – | – | 25.3 | 17.3 | 14 | – | 0.06 (≈ 0.14 µM) | – | – | – | – | – | – | – | – | – | – |
| Clc1ccccc1CNc1ncnc2c1cnn2CC(Cl)c1ccc(Br)cc1 (stereo unspecified) | 95.2 | – | 13.2 | – | – | – | – | – | < 0.01 | – | – | – | – | – | – | – | – | – | – |
| CSc1nc(NCCc2ccccc2)c2cnn(CC(Cl)c3ccccc3)c2n1 (stereo unspecified) | 96.2 | – | 6.17 | – | – | – | – | 7.4 | 0.07 (≈ 0.165 µM) | – | – | – | – | – | – | – | – | – | – |
| CSc1nc(Nc2cccc(Cl)c2)c2cnn(CC(Cl)c3ccccc3)c2n1 (stereo unspecified) | 91.1 | 0.26 | 3.14 | – | 21.8 | 17.2 | 12.5 | – | 0.13 (≈ 0.302 µM) | – | – | – | – | – | – | – | – | 0.72 | – |
| CCC(CN1CCN(C)CC1)OC(=O)N(c1cccc(Br)c1)c1nc(SC)nc2c1cnn2CC(C)c1ccccc1 (stereo unspecified) | – | – | 0.93 | – | 7.7 | 6.4 | 2 | 1.45 | 1.96 (≈ 3 µM) | > 48 | > 48 | 11.3 | – | – | – | – | – | – | – |
| CN1CCN(CCOC(=O)N(c2ccccc2)c2ncnc3c2cnn3CC(Cl)c2ccc(Br)cc2)CC1 (stereo unspecified) | – | – | 6.97 | – | 8.2 | 5.1 | 2 | 9.91 | 41.6 (≈ 69.4 µM) | > 48 | > 48 | 5.68 | – | – | – | – | – | – | – |
| CSc1nc(N(C(=O)OC(C)CN2CCN(C)CC2)c2cccc(Br)c2)c2cnn(CC(C)c3ccccc3)c2n1 (stereo unspecified) | – | – | 2.39 | – | 7.4 | 4.5 | 1.8 | 2.15 | 3.4 (≈ 5.32 µM) | > 48 | > 48 | – | – | – | – | Metabolite_Detected | > 100 | > 100 | Active |
| CSc1nc(N(C(=O)OC(CN2CCN(C)CC2)c2ccccc2)c2cccc(Br)c2)c2cnn(CC(C)c3ccccc3)c2n1 (stereo unspecified) | – | – | – | – | – | – | – | – | – | < 0.25 | < 0.25 | – | – | – | – | – | – | – | – |
| CN1CCN(CCOC(=O)N(Cc2ccccc2Cl)c2ncnc3c2cnn3CC(Cl)c2ccc(Br)cc2)CC1 (stereo unspecified) | – | – | 1.92 | – | – | – | – | 2.38 | 1.95 (≈ 3.01 µM) | > 48 | > 48 | 75 | – | – | – | – | – | – | – |
| CSc1nc(N(CCc2ccccc2)C(=O)OCCN2CCN(C)CC2)c2cnn(CC(Cl)c3ccccc3)c2n1 (stereo unspecified) | – | – | 0.01 | – | – | – | – | 0.85 | 107 (≈ 180 µM) | > 48 | > 48 | 45.2 | – | – | – | – | – | – | – |
| ClC(Cn1ncc2c(NCc3ccccc3)ncnc21)c1ccccc1 (stereo unspecified) | 78.3 | – | – | – | 14.6 | 4.9 | 2.9 | – | 0.7 (≈ 1.92 µM) | – | – | – | – | – | – | – | – | – | – |
| CCCCNc1nc(SCC)nc2c1cnn2CC(Cl)c1ccccc1 (stereo unspecified) | – | – | 9.99 | – | – | – | – | – | 0.05 (≈ 0.128 µM) | – | – | – | – | – | – | – | – | – | – |

More lines, now with the values ahead:

| remaining at 1 h, 50 µM [1] [%] | Papp [2] [×10⁻⁶ cm/s] | Papp at 5 h, 500 µM (physchem [3]) [×10⁻⁶ cm/s] | remaining at 1 h, 50 µM [4] [%] | IC50 (cells [5]) [µM] | IC50 (cells [6]) [µM] | IC50 (cells [7]) [µM] | Papp at 5 h, 500 µM (physchem [8]) [×10⁻⁶ cm/s] | solubility at 24 h (physchem [9]) [µg/mL] | half-life at 100 µM [10] [h] | half-life at 100 µM [11] [h] | half-life [12] [h] | Drug uptake [13] | Drug uptake [14] | half-life [15] [h] | Drug metabolism [16] | Ki [17] [µM] | Ki [18] [µM] | Drug uptake [19] | Structure (SMILES) |
| --- | --- | --- | --- | --- | --- | --- | --- | --- | --- | --- | --- | --- | --- | --- | --- | --- | --- | --- | --- |
| – | – | 0.5 | 94.2 | 16.2 | 2.3 | 1.5 | 0.01 | 0.01 (≈ 0.022 µM) | – | – | – | – | – | – | – | – | – | – | CSc1nc(Nc2cccc(Br)c2)c2cnn(CC(C)c3ccccc3)c2n1 (stereo unspecified) |
| – | – | – | – | – | – | – | – | – | 1 | 2 | 0.46 | – | – | – | – | – | – | – | CCCCN(C(=O)OCCN1CCN(C)CC1)c1nc(SCC)nc2c1cnn2CC(Cl)c1ccccc1 (stereo unspecified) |
| – | – | 1.89 | 93.3 | 7.3 | 2.2 | 1.57 | – | 6.47 (≈ 10.4 µM) | > 48 | > 48 | – | Active | Active | 2 | Metabolite_Detected | > 100 | > 100 | – | CSc1nc(N(C(=O)OCCN2CCN(C)CC2)c2cccc(Br)c2)c2cnn(CC(C)c3ccccc3)c2n1 (stereo unspecified) |
| – | – | 4.3 | – | – | – | – | 4.69 | 6.32 (≈ 11.2 µM) | > 48 | > 48 | 3.13 | – | – | – | – | – | – | – | CSc1nc(N(C(=O)OCCN2CCN(C)CC2)c2cccc(Cl)c2)c2cnn(CCc3ccccc3)c2n1 |
| – | – | 1.01 | – | 6.7 | 2.45 | 1.69 | 2.32 | 0.99 (≈ 1.39 µM) | > 48 | > 48 | 40 | – | – | – | Metabolite_Detected | > 100 | > 100 | Active | CSc1nc(N(C(=O)OC(Cc2ccccc2)CN2CCN(C)CC2)c2cccc(Br)c2)c2cnn(CC(C)c3ccccc3)c2n1 (stereo unspecified) |
| 86.4 | – | 5.01 | – | 18.6 | 15.2 | 15 | 6.7 | 18.8 (≈ 35.2 µM) | > 48 | > 48 | 64.4 | – | – | – | – | – | – | – | CN1CCN(CCOC(=O)N(Cc2ccccc2)c2ncnc3c2cnn3CC(Cl)c2ccccc2)CC1 (stereo unspecified) |
| – | – | 4.14 | – | 11.5 | 7.9 | 2.54 | 4.95 | 4.22 (≈ 7.03 µM) | > 48 | > 48 | 3.71 | – | – | – | – | – | – | – | CSc1nc(N(C(=O)OCCN2CCN(C)CC2)c2cccc(Cl)c2)c2cnn(CC(Cl)c3ccccc3)c2n1 (stereo unspecified) |
